Here are results for seven compounds from article PMC2791876, “Comparison of effects of green tea catechins on apicomplexan hexose transporters and mammalian orthologues” (Molecular and Biochemical Parasitology, 2009).

A value given as a limit tells only on which side of the number the result lay.

Assay [1] deals with T1, Plasmodium falciparum hexose transporter (PfHT) (Plasmodium falciparum, UniProt O97467).
T1 construct: expressed in transfected cells; host or cells: Xenopus laevis oocytes
T1 sequence (O97467 1-504): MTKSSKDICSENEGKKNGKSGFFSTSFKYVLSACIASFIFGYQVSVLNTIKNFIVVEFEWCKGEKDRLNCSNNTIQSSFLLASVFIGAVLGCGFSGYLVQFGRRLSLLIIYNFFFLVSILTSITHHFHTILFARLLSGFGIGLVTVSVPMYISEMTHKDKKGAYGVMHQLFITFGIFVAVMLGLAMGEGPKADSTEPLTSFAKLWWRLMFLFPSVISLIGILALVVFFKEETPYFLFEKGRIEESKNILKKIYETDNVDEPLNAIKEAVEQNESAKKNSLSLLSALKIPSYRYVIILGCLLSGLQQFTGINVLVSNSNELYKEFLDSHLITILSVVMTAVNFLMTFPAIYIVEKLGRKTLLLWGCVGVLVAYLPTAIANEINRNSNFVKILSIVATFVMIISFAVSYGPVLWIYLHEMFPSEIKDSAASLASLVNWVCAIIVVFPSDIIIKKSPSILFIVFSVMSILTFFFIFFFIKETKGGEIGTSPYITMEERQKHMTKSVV
The assay can be described thus: cell-based. Conditions: D-glucose (38 μM) transport, X. laevis oocytes, room temperature; mean ± SEM (n ≥ 3). Here is the method:
(§1) The effect of the green tea catechins, EC, ECG, EGC and EGCG, on D-glucose transport via PfHT, GLUT1 and the Babesia bovis hexose transporter 1 (BboHT1; [12]) and D-fructose transport via GLUT5 was assayed in Xenopus laevis oocytes expressing each of the hexose transporters, using methods described previously.

In assay [2] the target is T2, mammalian facilitative glucose transporter 1 (GLUT1) (Homo sapiens, UniProt P11166).
T2 construct: expressed in transfected cells; host or cells: Xenopus laevis oocytes
T2 sequence (P11166 1-492): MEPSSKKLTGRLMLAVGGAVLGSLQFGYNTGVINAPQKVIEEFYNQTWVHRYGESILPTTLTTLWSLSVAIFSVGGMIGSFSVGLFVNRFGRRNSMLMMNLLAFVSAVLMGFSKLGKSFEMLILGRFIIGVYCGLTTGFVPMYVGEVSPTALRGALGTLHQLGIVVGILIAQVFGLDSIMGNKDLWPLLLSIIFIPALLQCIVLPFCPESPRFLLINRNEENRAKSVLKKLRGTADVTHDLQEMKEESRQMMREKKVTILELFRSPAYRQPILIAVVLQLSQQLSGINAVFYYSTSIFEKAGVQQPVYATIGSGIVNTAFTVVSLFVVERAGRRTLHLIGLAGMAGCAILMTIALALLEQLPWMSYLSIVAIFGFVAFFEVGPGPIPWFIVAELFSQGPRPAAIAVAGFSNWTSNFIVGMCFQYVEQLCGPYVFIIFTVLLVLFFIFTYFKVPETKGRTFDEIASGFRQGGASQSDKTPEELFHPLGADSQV
The assay is described as follows: D-glucose transport via GLUT1 expressed in Xenopus laevis oocytes. The format is cell-based. Particulars: D-glucose (38 μM) transport, X. laevis oocytes, room temperature; mean ± SEM (n ≥ 3). Here is the method:
as §1

Assay [3] has as its target T3, Babesia bovis hexose transporter 1 (BboHT1) (Babesia bovis, UniProt B0LKY8). The assay can be described thus: D-glucose transport via BboHT1 expressed in Xenopus laevis oocytes. The format is cell-based. Particulars: X. laevis oocytes, room temperature, mean ± SEM (n ≥ 3). How it is done:
The effect of the green tea catechins, EC, ECG, EGC and EGCG, on D-glucose transport via PfHT, GLUT1 and the Babesia bovis hexose transporter 1 (BboHT1; [12]) and D-fructose transport via GLUT5 was assayed in Xenopus laevis oocytes expressing each of the hexose transporters, using methods described previously. The compounds were tested initially at a concentration of 0.5 mM (data not shown).

In the next assay the target is T4, GLUT5 (Homo sapiens, UniProt P22732).
T4 construct: expressed in transfected cells; host or cells: Xenopus laevis oocytes
T4 sequence (P22732 1-501): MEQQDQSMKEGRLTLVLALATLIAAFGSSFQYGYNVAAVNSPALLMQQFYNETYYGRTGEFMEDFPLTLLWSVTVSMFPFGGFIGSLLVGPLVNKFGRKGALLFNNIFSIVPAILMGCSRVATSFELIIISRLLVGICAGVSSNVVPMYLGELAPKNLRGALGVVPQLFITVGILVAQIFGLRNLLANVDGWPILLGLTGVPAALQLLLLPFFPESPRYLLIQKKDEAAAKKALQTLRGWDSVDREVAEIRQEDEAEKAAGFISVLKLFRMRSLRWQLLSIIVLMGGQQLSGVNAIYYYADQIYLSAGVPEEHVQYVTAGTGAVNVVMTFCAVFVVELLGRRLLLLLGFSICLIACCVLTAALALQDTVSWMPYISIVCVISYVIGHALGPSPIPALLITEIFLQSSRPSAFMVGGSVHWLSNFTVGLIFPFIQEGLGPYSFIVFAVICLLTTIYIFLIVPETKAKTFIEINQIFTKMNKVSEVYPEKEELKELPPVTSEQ
The assay is described as follows: D-fructose transport via GLUT5 expressed in Xenopus laevis oocytes. Conditions: D-fructose (100 μM) transport, X. laevis oocytes, room temperature; mean ± SEM (n ≥ 3). The class given is cell-based, mammalian. How it is done:
as §1

Assay [4] has as its system Babesia divergens (strain Rouen 1987). The assay can be described thus: Babesia divergens growth inhibition. The class given is cell-based. Particulars: B. divergens, mean ± SEM; for inhibition of parasite growth: 200 μM, n = 3. Here is the method:
(§2) Furthermore, given that catechins are competitive inhibitors of D-glucose transport mediated by GLUT1 [8], the relationship between external D-glucose concentration and IC50 values was examined. […] The effect of catechins was also tested on Babesia divergens (strain Rouen 1987) growth as described.

In another assay the test system is L323N BboHT1. The assay can be described thus: D-glucose uptake by mutant L323N BboHT1 in X. laevis oocytes. The format is cell-based, Babesia bovis. Particulars: 0.5 mM catechin; L323N vs wild-type; P < 0.001.
The target in a further assay is GLUT1. Set-up: method as in PMID 12970085. Particulars: human erythrocytes, zero-trans D-glucose efflux; read-out: Ki for D-glucose transport via GLUT1, published previously; cited from earlier work.
In a further assay the test system is P. falciparum (3D7). The assay can be described thus: P. falciparum growth in vitro. The format is cell-based, Plasmodium falciparum. Conditions: P. falciparum 3D7, 12 mM D-glucose, 48 h; mean ± SEM (n ≥ 3); read-out: IC50 parasite growth. Here is the method:
as §2

For another assay, the target named is T5, PfHT (Plasmodium falciparum, UniProt O97467).
T5 construct: expressed in transfected cells; host or cells: Xenopus laevis oocytes
The assay is described as follows: 3-O-methyl-D-glucose (3OMG) transport via PfHT in X. laevis oocytes. The class given is cell-based. Conditions: 3OMG (17 μM), mean ± SEM, n = 3.

Assay [5] has as its target T1, Plasmodium falciparum hexose transporter (PfHT). Conditions: cited from earlier work; for Km: substrate Km, read-out: Km for transport via PfHT.
The target in assay [6] is T3, Babesia bovis hexose transporter 1 (BboHT1). Set-up: method as in PMID 18638508. Conditions: cited from earlier work.
A further assay deals with B. bovis parasites. The arrangement: method as in PMID 18638508. Conditions: cited from earlier work.

T3 sequence (B0LKY8 entry or part of it): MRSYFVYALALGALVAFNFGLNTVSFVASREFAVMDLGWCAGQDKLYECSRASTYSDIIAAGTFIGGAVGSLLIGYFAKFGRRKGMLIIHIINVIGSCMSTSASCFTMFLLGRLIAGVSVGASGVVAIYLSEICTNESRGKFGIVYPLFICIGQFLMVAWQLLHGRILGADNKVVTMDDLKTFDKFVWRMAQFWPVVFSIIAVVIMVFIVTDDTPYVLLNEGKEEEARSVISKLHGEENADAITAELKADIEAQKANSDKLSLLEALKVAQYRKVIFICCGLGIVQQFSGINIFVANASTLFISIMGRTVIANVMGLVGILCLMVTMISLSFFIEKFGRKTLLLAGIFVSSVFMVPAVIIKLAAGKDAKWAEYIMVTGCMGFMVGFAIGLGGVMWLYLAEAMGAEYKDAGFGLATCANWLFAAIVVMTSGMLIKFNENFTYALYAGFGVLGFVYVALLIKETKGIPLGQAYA

What is called Ki is the dissociation constant of the complex between target and ligand, obtained from inhibition or displacement. `Oc1cc(O)c2c(c1)O[C@H](c1cc(O)c(O)c(O)c1)[C@H](O)C2` [EGC, (−)-epigallocatechin]: the Ki is greater than 500 µM in assay [1], greater than 500 µM in assay [2], 168 ± 83 µM in [3] and greater than 500 µM at GLUT5. Besides, the “inhibition of parasite growth” value in assay [4] worked out at 30 ± 10%.

Usually inhibition stands for the percentage by which the read-out fell short of the control. Regarding `Oc1cc(O)c2c(c1)O[C@H](c1ccc(O)c(O)c1)[C@H](O)C2` [EC, (−)-epicatechin], the Ki in assay [1] was greater than 500 µM; in assay [2] it was roughly 500 µM; in assay [3] it was 108 ± 52 µM; at GLUT5, greater than 500 µM. In addition, in the assay on L323N BboHT1, the “effect on D-glucose uptake by mutant versus wild-type BboHT1” value is listed as “affected significantly less”. Moreover, the inhibition at 200 µM in assay [4] (Babesia divergens, n = 3, read-out: inhibition of parasite growth) was found to be 66 ± 14%.

Broadly, the IC50 is the point on the concentration scale where inhibition reaches its midpoint. Turning to `O=C(O[C@@H]1Cc2c(O)cc(O)cc2O[C@@H]1c1ccc(O)c(O)c1)c1cc(O)c(O)c(O)c1` [ECG, (−)-epicatechin-gallate], the Ki is 45 ± 10 µM in assay [1]; 0.14 µM on GLUT1; 68 ± 18 µM in assay [2]; 18 ± 3 µM at PfHT; greater than 500 µM in assay [3]; 117 ± 54 µM on GLUT5. Further, in the assay with P. falciparum (3D7), the IC50 came to 32 ± 1 µM.

As usually defined, the Km is the substrate concentration at which the rate is half of its maximum. `CO[C@@H]([C@H](O)[C@H](O)CO)[C@@H](O)C=O` [3OMG, 3-O-methyl-D-glucose]: the Km in assay [5] is 1300 µM.

For (−)-epigallocatechin-gallate [EGCG], the Ki was 90 ± 24 µM in assay [1]; 0.97 µM on GLUT1; 105 ± 18 µM in assay [2]; greater than 500 µM in assay [3]; 113 ± 48 µM at GLUT5. In the assay on P. falciparum (3D7), the IC50 came out at 17 ± 3 µM. In addition, the “inhibition of parasite growth” value in assay [4] is on record as 71 ± 2%.

As for `OC[C@H]1OC(O)[C@H](O)[C@@H](O)[C@@H]1O` (stereo partly drawn) [D-glucose], the Km in assay [5] was 1000 µM.

In the case of `C=CCCCCCCCCCO[C@H]1[C@H](O)[C@@H](CO)OC(O)[C@@H]1O` (stereo partly drawn) [compound 3361], the “inhibition of BboHT1” value in [6] is given as “good inhibitor”. For the same compound, the “inhibition of D-glucose transport via PfHT (mode)” value in assay [5] was “specific and competitive inhibitor”. The “killing of B. bovis parasites in culture” value in the assay on B. bovis parasites is “did not kill”.
